Source: patent publication US20250215030A1, “STAT MODULATORS AND USES THEREOF” (Recludix Pharma, Inc., priority 2022, published 2025)

Tests used:
pSTAT3 (pY705-STAT3) = molecular target: T1, pSTAT3 (pY705-STAT3) (Homo sapiens, UniProt P40763); assay: MSD-pSTAT-PBMC Assay (pSTAT3, IL-6 stimulated); type: cell-based; conditions: PBMC, compound 3 hrs, then 10 ng/mL IL-6 for 10 min; MSD pY705-STAT3; read-out: pSTAT3
T1 construct: host or cells: cryopreserved PBMC
In short: (§1)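 Human PBMCs (50,000 cells/well for STAT3, 25,000 for STAT6) treated with compound 3 h, then stimulated 10 min with 10 ng/mL IL-6 or 1 ng/mL IL-4. Lysate pSTAT3 (pY705) or pSTAT6 (pY641) measured by MSD sandwich electrochemiluminescence. Signal minus unstimulated, normalized to DMSO; IC50 by variable-slope nonlinear regression.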

pSTAT6 (pY641-STAT6) = molecular target: T2, pSTAT6 (pY641-STAT6) (Homo sapiens, UniProt P42226); assay: MSD-pSTAT-PBMC Assay (pSTAT6, IL-4 stimulated); type: cell-based; conditions: compound 3 hrs, then 1 ng/mL IL-4 for 10 min
T2 construct: host or cells: cryopreserved PBMC
T2 sequence (P42226 1-847): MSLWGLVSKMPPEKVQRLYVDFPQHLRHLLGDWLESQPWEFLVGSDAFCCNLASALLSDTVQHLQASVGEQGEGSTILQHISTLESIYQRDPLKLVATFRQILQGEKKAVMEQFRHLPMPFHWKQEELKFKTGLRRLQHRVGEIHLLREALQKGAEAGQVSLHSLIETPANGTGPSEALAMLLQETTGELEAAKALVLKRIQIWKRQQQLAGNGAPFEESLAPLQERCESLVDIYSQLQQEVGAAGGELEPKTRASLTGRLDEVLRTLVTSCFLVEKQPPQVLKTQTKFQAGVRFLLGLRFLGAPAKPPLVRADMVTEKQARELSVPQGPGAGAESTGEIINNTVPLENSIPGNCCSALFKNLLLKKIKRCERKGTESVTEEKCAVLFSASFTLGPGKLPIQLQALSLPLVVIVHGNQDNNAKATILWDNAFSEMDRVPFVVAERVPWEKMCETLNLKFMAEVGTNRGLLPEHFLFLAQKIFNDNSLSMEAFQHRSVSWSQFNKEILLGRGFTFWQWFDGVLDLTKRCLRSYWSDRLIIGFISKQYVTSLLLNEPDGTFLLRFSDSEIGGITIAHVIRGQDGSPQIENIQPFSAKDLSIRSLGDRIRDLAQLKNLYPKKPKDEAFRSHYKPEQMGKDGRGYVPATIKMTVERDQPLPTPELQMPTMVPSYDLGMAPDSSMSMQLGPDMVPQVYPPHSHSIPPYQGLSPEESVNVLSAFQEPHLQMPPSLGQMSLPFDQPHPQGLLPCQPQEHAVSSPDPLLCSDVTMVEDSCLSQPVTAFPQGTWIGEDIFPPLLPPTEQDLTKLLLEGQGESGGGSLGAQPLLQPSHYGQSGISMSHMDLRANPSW
In short: as §1

T1 sequence (P40763 whole entry): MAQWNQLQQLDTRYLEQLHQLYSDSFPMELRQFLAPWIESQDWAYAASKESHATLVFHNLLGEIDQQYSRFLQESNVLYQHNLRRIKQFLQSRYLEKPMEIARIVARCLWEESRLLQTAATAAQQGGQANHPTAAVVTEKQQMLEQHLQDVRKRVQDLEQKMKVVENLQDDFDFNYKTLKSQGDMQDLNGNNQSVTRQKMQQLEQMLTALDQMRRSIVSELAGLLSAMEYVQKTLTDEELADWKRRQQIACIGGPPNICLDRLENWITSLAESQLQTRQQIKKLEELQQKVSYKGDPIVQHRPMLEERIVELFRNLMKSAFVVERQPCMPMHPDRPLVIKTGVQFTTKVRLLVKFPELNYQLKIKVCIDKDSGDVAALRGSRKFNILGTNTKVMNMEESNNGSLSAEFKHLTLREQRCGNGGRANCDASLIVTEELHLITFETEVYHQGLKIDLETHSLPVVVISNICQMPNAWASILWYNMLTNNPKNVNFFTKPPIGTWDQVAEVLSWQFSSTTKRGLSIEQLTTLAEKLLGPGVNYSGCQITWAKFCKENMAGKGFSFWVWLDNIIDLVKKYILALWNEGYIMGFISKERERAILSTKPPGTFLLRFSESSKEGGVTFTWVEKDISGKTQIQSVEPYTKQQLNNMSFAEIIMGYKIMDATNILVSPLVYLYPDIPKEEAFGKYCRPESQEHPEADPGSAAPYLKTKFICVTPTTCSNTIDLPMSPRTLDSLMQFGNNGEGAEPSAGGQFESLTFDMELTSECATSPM

Row | Compound | IC50 (pSTAT3 (pY705-STAT3)) [nM] | IC50 (pSTAT6 (pY641-STAT6)) [µM]
1 | CC(C)OC(=O)CNP(=O)(Oc1ccccc1)C(F)(F)c1ccc2sc(C(=O)N[C@H]3C[C@@H]4C[C@@H]4C[C@H]4CC[C@@H](C(=O)N5CC(C(=O)N6CCOCC6)C5)N4C3=O)cc2c1 (stereo partly drawn) [Example 2, isopropyl ((difluoro(2-(((3S,6S,7aS,8aR,9aR)-3-(3-(morpholine-4-carbonyl)azetidine-1-carbonyl)-5-oxodecahydro-1H-cyclopropa[d]pyrrolo[1,2-a]azocin-6-yl)carbamoyl)benzo[b]thiophen-5-yl)methyl)(phenoxy)phosphoryl)glycinate] | > 3000 | > 3
2 | CCCCC(=O)OCOP(=O)(OCOC(=O)CCCC)C(F)(F)c1ccc2sc(C(=O)N[C@H]3C[C@@H]4C[C@@H]4C[C@H]4CC[C@@H](C(=O)N5CC(C(=O)N6CCOCC6)C5)N4C3=O)cc2c1 [Example 4, (((difluoro(2-(((3S,6S,7aS,8aR,9aR)-3-(3-(morpholine-4-carbonyl)azetidine-1-carbonyl)-5-oxodecahydro-1H-cyclopropa[d]pyrrolo[1,2-a]azocin-6-yl)carbamoyl)benzo[b]thiophen-5-yl)methyl)phosphoryl)bis(oxy))bis(methylene) dipentanoate] | < 100 | > 3
